One assay concerns Hela cell line. The experiment in a line: Cytotoxicity assay (Alamar blue), Hela. The assay is classed as cell-based, human. As to conditions: for EC50: Homo sapiens, HeLa, read-out: cell lines EC50, Hela. The method, then:
(§1) The selectivity of these compounds for activity against prokaryotic cells over mammalian cells was analyzed by considering their cytotoxicity against Hela, heK-293, CaCo, and MDCK […] cell lines, allowing estimation of the therapeutic ratio [EC50Hela cell line/MIC(S. aureus)] (Table 3). […]
Screening of compounds were performed by Oxford Antibiotic Group, Austria. For MIC determination by broth dilution assay, the samples were tested in a primary 96 well plates screening assay, in duplicate. The compounds were diluted in Mueller Hinton Broth (MHB) for bacterial screening to a stock solution of 1000 µg/mL, serial diluted and overlaid with a microbe solution in a concentration of 10^4 CFU/ml. The plates were incubated for […]
(§2) For cytotoxicity testing, the synthesized compounds were tested against four different cell lines: HeLa, HEK 293, MDCK and CaCo. The cells were seeded in a 96 well plate and incubated until a confluence of 80% was achieved (under physiological conditions - 37°C, 5% CO2 and 95% humidity). The samples were tested by serial dilution in triplicates with starting concentration of 250 µg/mL. After 24 and 48 hours the survival of cells was evaluated by microscope and measured with Alamar blue. IC50 values were obtained from the calibration curves. […]
For orientation: Alamar Blue is a resazurin reagent that responds to reducing activity.

The test system of assay [1] is methicillin-resistant Staphylococcus aureus (MRSA). The experiment in a line: MIC determination by broth dilution assay against MRSA. Type of assay: cell-based. On the procedure:
(§3) With access to these derivatives routinely available, an assessment of their antibacterial activity was made by measuring minimum inhibitory concentration (MIC) values (Table S6) against two example organisms, methicillin-resistant Staphylococcus aureus (MRSA) and E. coli. […] By contrast, a more polar substituent at the C7-position (pyran 12t) compromised the antibacterial activity (125 μg/mL). […] Compound 13b had the same activity as 12g at 1.00 μg/mL. Overall, increasing lipophilicity corresponded to higher potency against MRSA. […]
(§4) Screening of compounds were performed by Oxford Antibiotic Group, Austria. For MIC determination by broth dilution assay, the samples were tested in a primary 96 well plates screening assay, in duplicate. The compounds were diluted in Mueller Hinton Broth (MHB) for bacterial screening to a stock solution of 1000 µg/mL, serial diluted and overlaid with a microbe solution in a concentration of 10^4 CFU/ml. […]
(In broth dilution the organism is exposed to a series of concentrations in liquid medium.)

The test system of the next assay is MDCK cell line. As to the kind of experiment: Cytotoxicity assay (Alamar blue), MDCK. As to conditions: read-out: cell lines EC50, MDCK. Type of assay: cell-based. The method, then: as §1
(§5) Screening of compounds were performed by Oxford Antibiotic Group, Austria. […]
as §2

Assay [2] has as its system MRSA. The experiment in a line: Broth dilution MIC against MRSA in the presence of serum albumin. The assay is classed as cell-based. Particulars: Staphylococcus aureus, one-third the serum albumin concentration found in human blood. The method, then: (§6) As tetramic acids are well-known metal chelators,[1],[20] of interest was to investigate whether this loss of activity was due to metal chelation or plasma protein binding (PPB), specifically with human serum albumin (HSA).[17],[18] To answer this question, bicyclic tetramate 12a was tested against MRSA using a broth dilution assay, under standard conditions and with the addition of similar metal cations (Fe, Ca, Mg, and Zn) with concentration as that found in blood, respectively. […] Bicyclic tetramate 12a was also tested against MRSA using a broth dilution assay, under standard conditions but in the presence of one-third the serum albumin concentration as that found in human blood. […] A review has shown that PPB strongly correlates with increased hydrophobicity, and this might point to a problem with the tetramate class, which clearly depends upon hydrophobicity for their antibacterial activity, as noted above.[21]

Assay [3] concerns MRSA. The experiment in a line: Broth dilution MIC against MRSA with added metal cations. Type of assay: cell-based. Particulars: Staphylococcus aureus, addition of Fe, Ca, Mg and Zn at concentration as found in blood. On the procedure:
as §6

The test system of a further assay is heK-293 cell line. As to the kind of experiment: Cytotoxicity assay (Alamar blue), heK-293. The assay is classed as cell-based. As to conditions: Homo sapiens, HEK293; read-out: cell lines EC50, heK-293. The method, then: as §1, §5, §2
The test system of another assay is CaCo cell line. As to the kind of experiment: Cytotoxicity assay (Alamar blue), CaCo. Type of assay: cell-based. As to conditions: Homo sapiens; read-out: cell lines EC50, CaCo. On the procedure:
as §1, §5, §2

The next assay concerns E. coli. The experiment in a line: MIC determination by broth dilution assay against E. coli. The assay is classed as cell-based. The method, then: as §3, §4
[4] abbreviates: Staphylococcus aureus, MRSA, Table 3, read-out: MIC(S. aureus).
The mark [5] stands for this setting: Staphylococcus aureus, MRSA, Table S6, read-out: MIC.

Results on 6 molecules are retold here after PMC9486951, “Tetramate Derivatives by Chemoselective Dieckmann Ring Closure of threo-Phenylserines and Their Antibacterial Activity” (The Journal of Organic Chemistry, 2022).

Structures are written as SMILES. ≈ marks a conversion by molar mass, not a printed value. Like-named read-outs stand apart in the source and are kept apart here.

For the molecule `CC(C)(C)[C@@H]1O[C@H](c2ccccc2)[C@H]2C(O)=C(C(=O)NC34CC5CC(CC(C5)C3)C4)C(=O)N21` (mixture of isomers) [12a], in the assay on Hela cell line (EC50 Hela cell line/MIC(S. aureus)), the “therapeutic ratio / selectivity for bacteria over the Hela cell line” value amounted to 26 fold. Besides, the EC50 (as a rule, the midpoint of the concentration-response curve) in the assay on Hela cell line was found to be 7.8 µg/mL; in the assay on MDCK cell line, 7.8 µg/mL; in the assay with heK-293 cell line it was 31.3 µg/mL; in the assay with CaCo cell line, 15.6 µg/mL. In addition, the MIC (commonly the lowest concentration found to suppress growth) in assay [1] (setting [4]) was found to be 0.3 µg/mL; in assay [1] (Staphylococcus aureus, MRSA, Table S5, against S. aureus, read-out: MIC), 0.25 µg/mL; in assay [1] (Staphylococcus aureus, MRSA, broth dilution assay, standard conditions (control of metal cation experiment), read-out: MIC against MRSA, standard conditions), 0.49 µg/mL; in assay [1] (Staphylococcus aureus, MRSA, broth dilution, read-out: MIC against MRSA), 0.25 µg/mL; in assay [1] (Table S6) it was 0.25 µg/mL; with MRSA [2], 7.81 µg/mL. This molecule also returned an MIC against MRSA [3] of 0.24 µg/mL.
Regarding `CCOC(=O)C1=C(O)[C@@H]2[C@@H](c3ccccc3)O[C@@H](C(C)(C)C)N2C1=O` (racemic) [10a], the “antibacterial activity against MRSA (in words)” value in assay [1] is reported as “no activity”. For the same molecule, the “antibacterial activity against E. coli (in words)” value in the assay on E. coli is recorded as “no activity”.
For `CCOC(=O)C1=C(O)[C@@H]2[C@@H](c3ccc(F)cc3)O[C@@H](C(C)(C)C)N2C1=O` (racemic) [10c], the 50% effective concentration (EC50) turned out to be 31.3 µg/mL (≈ 86.1 µM) in the assay with Hela cell line, 62.5 µg/mL (≈ 172 µM) in the assay with MDCK cell line, 62.5 µg/mL (≈ 172 µM) in the assay on heK-293 cell line and 62.5 µg/mL (≈ 172 µM) with CaCo cell line. Besides, the MIC in assay [1] (setting [4]) and in assay [1] (setting [5]) was 31.3 µg/mL (≈ 86.1 µM) in each case.
As for `CCOC(=O)C1=C(O)[C@@H]2[C@@H](c3ccc(Cl)cc3)O[C@@H](C(C)(C)C)N2C1=O` (racemic) [10d], the EC50 with Hela cell line was 31.3 µg/mL (≈ 82.4 µM); with MDCK cell line, 62.5 µg/mL (≈ 165 µM); in the assay on heK-293 cell line, 31.3 µg/mL (≈ 82.4 µM); in the assay on CaCo cell line, 31.3 µg/mL (≈ 82.4 µM). The minimum inhibitory concentration (MIC) in assay [1] (setting [4]) and in assay [1] (setting [5]) was 15.6 µg/mL (≈ 41.1 µM) throughout.
Turning to `CCOC(=O)C1=C(O)[C@@H]2[C@@H](c3ccc(Br)cc3)O[C@@H](C(C)(C)C)N2C1=O` (racemic) [10e], the EC50 is 31.3 µg/mL (≈ 73.8 µM) with Hela cell line, 62.5 µg/mL (≈ 147 µM) in the assay with MDCK cell line, 62.5 µg/mL (≈ 147 µM) in the assay on heK-293 cell line and 62.5 µg/mL (≈ 147 µM) with CaCo cell line. The minimum inhibitory concentration (MIC) in assay [1] (setting [4]) and in assay [1] (setting [5]) was 15.6 µg/mL (≈ 36.8 µM) each time.
`CCOC(=O)C1=C(O)[C@@H]2[C@@H](c3ccc(C)cc3)O[C@@H](C(C)(C)C)N2C1=O` [10b]: in assay [1], the “antibacterial activity against MRSA (in words)” value is “no activity”. For the same molecule, the “antibacterial activity against E. coli (in words)” value in the assay with E. coli is “no activity”.
